In patent US4110330A, “5'-Acetonylvincristine and related compounds” (priority 1977, dated 1978):
Where “and” joins values, the source holds several entries; their conditions need not be identical. Equal entries are not always repeated.

Key:
[1] = test system: experimental maliganancies; conditions: background; cited from earlier work
[2] = test system: Gardner lymphosarcoma (GLS); test: Transplanted tumor GLS in mice, percent inhibition of tumor growth or percent prolongation of survival time; format: in vivo
Method: (§1) The compounds of this invention are antimitotic agents being active in tissue culture and against transplanted tumors in mice.
(§2) The following table -- Table 1 -- gives the results of several experiments in which mice bearing transplanted tumors were treated successfully with a compound of this invention. The following abbreviations are employed: Compound A is 5'-acetonylvincristine sulfate; B and C are the corresponding dehydrated hemiketal sulfate and free base; D is 4-desacetyl-5'-acetonylvincristine; GLS is Gardner lymphosarcoma; ROS is Ridgeway Osteogenic Sarcoma and CA755 is an adenocarcinoma. In the table, column 1 gives the compound designation; column 2, the abbreviation of the name of transplanted tumor; column 3, the dose level and the number of days that dosage was administered; and column 4, the percent inhibition of tumor growth or percent prolongation of survival time

[3] = test system: Ridgeway Osteogenic Sarcoma (ROS); test: Transplanted tumor ROS in mice, percent inhibition of tumor growth or percent prolongation of survival time; format: in vivo
Method: as §1, §2

CA755 (adenocarcinoma) = test: Transplanted tumor CA755 in mice, percent inhibition of tumor growth or percent prolongation of survival time; format: in vivo
Method: as §1, §2

[4] = 0.05 mg/kg × 9 days, marked *: not statistically significantly different from control
[5] = 0.3 mg/kg × 7 days, marked *: not statistically significantly different from control

In the case of `CCC1(O)CN2CCc3c([nH]c4ccccc34)C(C(=O)OC)(c3cc4c(cc3OC)N(C)C3C(O)(C(=O)OC)C(OC(C)=O)C5(CC)C=CCN6CCC43C65)CC(O)(C2)C1` (centres unmarked) [leurocolombine], the “activity in the treatment of experimental malignancies in animals” value (shortened to “activity in the treatment”) [1] is listed as “active”.
In the case of `CC[C@@]1(O)C[C@@H]2CN(CCc3c([nH]c4ccccc34)[C@@](C(=O)OC)(c3cc4c(cc3OC)N(C)[C@H]3[C@@](O)(C(=O)OC)[C@H](OC(C)=O)[C@]5(CC)C=CCN6CC[C@]43[C@@H]65)C2)C1` [leurosidine], the “activity in the treatment” value [1] is listed as “active”.
For `CCC12CC3CN(CCc4c([nH]c5ccccc45)C(C(=O)OC)(c4cc5c(cc4OC)N(C=O)C4C(O)(C(=O)OC)C(OC(C)=O)C6(CC)C=CCN7CCC54C76)C3)C1C=C(C)O2.O=S(=O)(O)O` (centres unmarked) [B, 2",3"-dehydro-5'-acetonylvincristine 1",2"-hemiketal], the “percent inhibition of tumor growth or percent prolongation of survival time” value (“percent inhibition” below) [2, 4] was 13%, the “percent inhibition” value ([2]; 0.1 mg/kg × 7 days) was 0% and the “percent inhibition” value ([2]; 0.1 mg/kg × 9 days, marked *: not statistically significantly different from control) was 21%. For the same compound, the “percent inhibition” value ([2]; 0.2 mg/kg × 7 days, marked *: not statistically significantly different from control) was 21%, the “percent inhibition” value ([2]; 0.2 mg/kg × 9 days, marked *: not statistically significantly different from control) was 8% and the “percent inhibition” value [2, 5] was 22% and 37%. For the same compound, the “percent inhibition” value ([2]; 0.3 mg/kg × 9 days) was 36%, the “percent inhibition” value ([2]; 0.5 mg/kg × 7 days) was 54% and 39% and 59% and the “percent inhibition” value ([2]; 0.5 mg/kg × 9 days) was 71%. For the same compound, the “percent inhibition” value ([2]; 1.0 mg/kg × 7 days) was 100% and 76% and 96%, the “percent inhibition” value ([2]; 1.0 mg/kg × 9 days) was 93% and the “percent inhibition” value ([2]; 5.0 mg/kg × 7 days) was 100%. For the same compound, the “percent inhibition” value ([3]; 0.1 mg/kg × 10 days) was 39%, the “percent inhibition” value ([3]; 0.2 mg/kg × 10 days) was 26% and the “percent inhibition” value ([3]; 0.3 mg/kg × 10 days, marked *: not statistically significantly different from control) was 14%. For the same compound, the “percent inhibition” value ([3]; 0.5 mg/kg × 10 days, marked *: not statistically significantly different from control) was 0% and the “percent inhibition” value ([3]; 1.0 mg/kg × 10 days, marked *: not statistically significantly different from control) was 0%.
For `CC[C@]12CN3CCc4c([nH]c5ccccc45)[C@@](C(=O)OC)(c4cc5c(cc4OC)N(C)[C@H]4[C@@](O)(C(=O)OC)[C@H](OC(C)=O)[C@]6(CC)C=CCN7CC[C@]54[C@@H]76)C[C@H](C3)[C@H]1O2` [leurosine], the “activity in the treatment” value [1] is given as “active”.
In the case of `CCC1(O)CC2CN(CCc3c([nH]c4ccccc34)C(C(=O)OC)(c3cc4c(cc3OC)N(C=O)C3C(O)(C(=O)OC)C(OC(C)=O)C5(CC)C=CCN6CCC43C65)C2)C1CC(C)=O.O=S(=O)(O)O` (centres unmarked) [Compound A, 5'-acetonylvincristine sulfate], the “percent inhibition” value (CA755 (adenocarcinoma); 0 mg/kg × 8 days (so in the source)) is reported as 39%, the “percent inhibition” value (CA755 (adenocarcinoma); 0.3 mg/kg × 8 days, marked *: not statistically significantly different from control) is reported as 21% and the “percent inhibition” value (CA755 (adenocarcinoma); 0.5 mg/kg × 8 days) is reported as 39%. For the same compound, the “percent inhibition” value (CA755 (adenocarcinoma); 5.0 mg/kg × 8 days) was 34%, the “percent inhibition” value [2, 4] was 8% and the “percent inhibition” value ([2]; 0.3 mg/kg × 7-9 days) was 39%. For the same compound, the “percent inhibition” value ([2]; 0.3 mg/kg × 7-9 days, marked *: not statistically significantly different from control) was 13%, the “percent inhibition” value ([2]; 0.5 mg/kg × 7-9 days) was 49% and 65% and the “percent inhibition” value ([2]; 1.0 mg/kg × 7-9 days) was 81% and 86%. The “toxicity” value ([3]; 0.05 mg/kg × 10 days) was “TOXIC”, the “percent inhibition” value ([3]; 0.1 mg/kg × 10 days) was 0% and the “percent inhibition” value ([3]; 0.2 mg/kg × 10 days) was 60%. For the same compound, the “percent inhibition” value ([3]; 0.3 mg/kg × 10 days) was 34%, the “toxicity” value ([3]; 0.5 mg/kg × 10 days) was “TOXIC” and the “toxicity” value ([3]; 1.0 mg/kg × 10 days) was “TOXIC”.
In the case of `CC[C@]1(O)C[C@@H]2CN(CCc3c([nH]c4ccccc34)[C@@](C(=O)OC)(c3cc4c(cc3OC)N(C)[C@H]3[C@@](O)(C(=O)OC)[C@H](OC(C)=O)[C@]5(CC)C=CCN6CC[C@]43[C@@H]65)C2)C1` [VLB, vincaleukoblastine], the “activity in the treatment” value [1] is listed as “active”.
With `CCC1(O)CC2CN(CCc3c([nH]c4ccccc34)C(C(=O)OC)(c3cc4c(cc3OC)N(C=O)C3C(O)(C(=O)OC)C(O)C5(CC)C=CCN6CCC43C65)C2)C1CC(C)=O` (centres unmarked) [D, 4-desacetyl-5'-acetonylvincristine] the “percent inhibition” value [2, 5] was 0%, the “percent inhibition” value ([2]; 0.5 mg/kg × 7 days) was 37% and 26% and the “percent inhibition” value ([2]; 1.0 mg/kg × 7 days) was 100% and 62%.
In the case of `CCC1(O)CN2CCc3c([nH]c4ccccc34)C(C(=O)OC)(c3cc4c(cc3OC)N(C)C3C(O)(C(=O)OC)CC5(CC)C=CCN6CCC43C65)CC(C2)C1O` (centres unmarked) [4-desacetoxy-3'-hydroxyvinblastine], the “activity in the treatment” value [1] is listed as “active”.
In the case of `CCC12CC3CN(CCc4c([nH]c5ccccc45)C(C(=O)OC)(c4cc5c(cc4OC)N(C=O)C4C(O)(C(=O)OC)C(OC(C)=O)C6(CC)C=CCN7CCC54C76)C3)C1C=C(C)O2` (centres unmarked) [C, 2",3"-dehydro-5'-acetonylvincristine 1",2"-hemiketal], the “percent inhibition” value ([2]; 0.5 mg/kg × 7 days) is reported as 57%, the “percent inhibition” value ([2]; 0.5 mg/kg × 7 days, marked *: not statistically significantly different from control) is reported as 2% and the “percent inhibition” value ([2]; 1.0 mg/kg × 7 days) is reported as 100%. The “percent inhibition” value ([2]; 1.0 mg/kg × 7 days, marked *: not statistically significantly different from control) was 5% and the “percent inhibition” value ([2]; 5.0 mg/kg × 7 days) was 100%.
For `CC[C@]1(O)C[C@H]2CN(CCc3c([nH]c4ccccc34)[C@@](C(=O)OC)(c3cc4c(cc3OC)N(C=O)[C@H]3[C@@](O)(C(=O)OC)[C@H](OC(C)=O)[C@]5(CC)C=CCN6CC[C@]43[C@@H]65)C2)C1` [leurocristine], the “activity in the treatment” value [1] is listed as “active”.
In the case of `CC[C@]12CN3CCc4c([nH]c5ccccc45)[C@@](C(=O)OC)(c4cc5c(cc4OC)N(C=O)[C@H]4[C@@](O)(C(=O)OC)[C@H](OC(C)=O)[C@]6(CC)C=CCN7CC[C@]54[C@@H]76)C[C@@H](C3)[C@H]1O2` [leuroformine, N-formylleurosine], the “activity in the treatment” value [1] is listed as “active”.
For `CCC1(O)CN2CCc3c([nH]c4ccccc34)C(C(=O)OC)(c3cc4c(cc3OC)N(C)C3C(O)(C(=O)OC)C(OC(C)=O)C5(CC)C=CCN6CCC43C65)CC(C2)C1O` (centres unmarked) [vincadioline], the “activity in the treatment” value [1] is given as “active”.
In the case of `CCC1CC2CN(CCc3c([nH]c4ccccc34)C(C(=O)OC)(c3cc4c(cc3OC)N(C)C3C(O)(C(=O)OC)C(OC(C)=O)C5(CC)C=CCN6CCC43C65)C2)C1` (centres unmarked) [deoxy VLB "A"], the “activity in the treatment” value [1] is given as “active”.
For `CC[C@]1(O)C[C@H]2CN(CCc3c([nH]c4ccccc34)[C@@](C(=O)OC)(c3cc4c(cc3OC)N(C)[C@@H]3[C@]45CCN4CC=C[C@@](CC)(C[C@]3(O)C(=O)OC)[C@H]45)C2)C1` [4-desacetoxyvinblastine], the “activity in the treatment” value [1] is listed as “active”.
